The values below come from ChEMBL document CHEMBL1201862, “PubChem BioAssay data set” (2004).

Test [1] can be described thus: luciferase reporter signal suppression in cells – H4 neuroglioma cells, luminescence, dose response (AID 1990). The test is classed as functional, cell-based. On the technique in general: Reporter assays use an easily measured gene product as a stand-in for the process of interest.
A short description of test [2]: luciferase reporter signal reduction – luminescence, H4-C neuroglioblastoma cells, dose response (AID 2458).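 Also: H4 neuroglioblastoma cells stably carrying a luciferase reporter gene fusion.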 It is filed as functional, cell-based.
Test [3] can be described thus: cells. The test is classed as functional, cell-based.
Test [4] is described as follows: Luminescence Cell-Based Dose Response HTS to Identify Inhibitors of 5'UTR Stem-Loop Driven Prion Protein mRNA Translation in H4 Neuroglioblastoma Cells. [Related pubchem assays: 1827 (Project Summary), 1813 (Primary HTS)]. The test is classed as functional.
Test [5] has as its target T1, Heat shock factor protein 1 (Mus musculus, UniProt P38532).
T1 sequence (P38532 whole entry): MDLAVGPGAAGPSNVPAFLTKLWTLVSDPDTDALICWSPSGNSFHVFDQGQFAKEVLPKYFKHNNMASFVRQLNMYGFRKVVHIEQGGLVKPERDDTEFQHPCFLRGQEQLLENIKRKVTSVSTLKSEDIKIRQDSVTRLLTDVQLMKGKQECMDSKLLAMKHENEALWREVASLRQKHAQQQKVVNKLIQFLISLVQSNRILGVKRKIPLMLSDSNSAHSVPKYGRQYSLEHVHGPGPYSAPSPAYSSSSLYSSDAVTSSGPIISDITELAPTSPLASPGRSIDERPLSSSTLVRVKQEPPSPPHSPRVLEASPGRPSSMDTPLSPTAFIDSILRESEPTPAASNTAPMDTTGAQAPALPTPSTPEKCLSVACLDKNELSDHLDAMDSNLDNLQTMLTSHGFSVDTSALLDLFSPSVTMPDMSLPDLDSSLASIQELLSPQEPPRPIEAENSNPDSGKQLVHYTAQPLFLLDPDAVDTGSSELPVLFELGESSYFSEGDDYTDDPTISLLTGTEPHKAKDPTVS
In words: decrease of HSF1-responsive luciferase luminescence – cell-based, NIH3T3, dose retest, confirmation (AID 2382).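 Also: NIH3T3 fibroblasts with HSF1-driven luciferase reporter stressed by proteasome inhibitor MG132; luminescence from HSF1-driven luciferase expression after 8 hours of MG132 stress.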 The test is classed as functional.

A short description of test [6]: alpha-synuclein stem-loop luciferase translation blockers – H4 neuroglioma cells, luminescence, confirmation (AID 1988). It is filed as functional, cell-based.
The target in test [7] is T2, Luciferin 4-monooxygenase (Photinus pyralis, UniProt P08659). In words: inhibition of purified Photinus pyralis luciferase – biochemical, luminescence, dose response (AID 1891).
A short description of test [8]: Luminescence Cell-Based Dose Confirmation HTS to Identify Inhibitors of Platelet Dense Granule Release. [Related pubchem assays: 1663 (Primary HTS), 1678 (Summary of Project)]. It is filed as functional.
Test [9] in a line: Luminescence-based counterscreen assay for KLF5 inhibitors: dose response cell-based high throughput screening assay to identify cytotoxic compounds using the IEC-6 intestinal epithelial cell line. [Related pubchem assays: 1700 (Primary screen.), 1834 (Confirmation screen.), 1858 (Summary AID.), 1905 (Counterscreen.)]. It is filed as functional. For orientation: The purpose of a counterscreen is to sort out artefacts and off-target activity.

The nature of test [10]: alpha-synuclein stem-loop translation blockers – luminescence, H4 neuroglioblastoma cells, dose confirmation, confirmation (AID 2454).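 Also: H4 neuroglioblastoma cells carrying an alpha-synuclein 5'UTR luciferase reporter; potency for inhibition of the luciferase signal.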 It is filed as functional, cell-based.
A short description of test [11]: A549 cell cytotoxicity, dose response, cytotoxicity control, plate reader, cherry-pick, antagonist series (AID 743412). It is filed as functional, cell-based.
The nature of test [12]: toxicity toward HepG2 liver cells – cell-based, plate reader, cherry-pick, antagonist series, cytotoxicity control, dose response (AID 743416). The test is classed as functional.
A short description of test [13]: blockers of bursicon-stimulated LGR2 cAMP reporter – cell-based, HEK293, CRE-luciferase reporter, cherry pick, set 2, dose response (AID 743343).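 Also: transfected cells were stimulated with diluted bursicon conditioned medium after compound addition.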 The test is classed as functional.
Test [14] can be described thus: blockade of melanocortin 4 receptor signaling – cell-based, plate reader, cherry pick, counter-screen for LGR2 antagonist project, dose response (AID 743444).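 Also: transfected HEK 293 cells stimulated with alpha-MSH peptide; potency of inhibitors of the alpha-MSH evoked signal.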 The test is classed as functional.
The nature of test [15]: viability loss in HEK293 cells – cell-based, plate reader, cherry-picked samples, cytotoxicity control, dose response (AID 743446). It is filed as functional.
The target in another test is Major prion protein (Homo sapiens, UniProt P04156). The test is classed as functional, cell-based.
The nature of test [16]: cells.
Another test has as its target Paired box protein Pax-8 (Homo sapiens, UniProt Q06710). The test can be described thus: PAX8 transcriptional activity inhibition in RMG-I – RMG-I cells, luciferase, cherry-pick, dose response (AID 687027).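 Also: luciferase reporter driven by Pax8 target thyroperoxidase promoter measured by SteadyGlo luminescence.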 It is filed as functional, cell-based.
The nature of test [17]: OVCAR-3 cell viability loss – plate reader, dry powder samples, PAX8 inhibitor project, dose response (AID 743044). The test is classed as functional, cell-based.
Test [18] in a line: OVCAR8 cell viability loss – plate reader, dry powder samples, PAX8 project, dose response (AID 743197). It is filed as functional, cell-based. The following applies: OVCAR-8.
A short description of test [19]: P. falciparum Dd2 growth inhibitors, dose response, SYBR Green, cherry-picked samples (AID 1159567). It is filed as functional, cell-based.
Test [20] is described as follows: toxicity to human hepatoma HepG2 cells – cell-based, cherry-picked samples, cytotoxicity control, dose response (AID 1159577). It is filed as functional.
A short description of test [21]: Dd2 parasite growth inhibition in erythrocytes – SYBR Green, dry powder samples, set 9, dose response (AID 1159568). The test is classed as functional, cell-based.
Test [22] has as its system HEK293. The test can be described thus: inhibition of NOD1-driven NF-kB reporter – cell-based, luminescence, uHTS, primary screen (AID 1578). The following applies: Homo sapiens. The test is classed as functional.
Test [23] concerns the target T2, Luciferin 4-monooxygenase. The test can be described thus: Counter Screen for Luciferase-based Assay Positives. [Related pubchem assays: 620, 618, 411 ].
The test system of test [24] is HEK293. The test can be described thus: cells. It is filed as functional, cell-based. The following applies: Homo sapiens.
In test [25] the test system is HEK293. In words: cells. It is filed as functional, cell-based. To be noted: Homo sapiens. This is another data set of the same source.
The target in test [26] is Nucleotide-binding oligomerization domain-containing protein 2 (Homo sapiens, UniProt Q9HC29). The test can be described thus: inhibition of NOD2-driven NF-kB reporter – cell-based, luminescence, uHTS, HEK293 (AID 1566). It is filed as functional.
Test [27] concerns HEK293. The test can be described thus: NOD2 signaling inhibitors in MDP-stimulated cells, cell-based, uHTS, luminescence (AID 2001). It is filed as functional. To be noted: Homo sapiens.
The test system of test [28] is HEK293. The test can be described thus: cells. It is filed as functional, cell-based. The following applies: Homo sapiens. This is another data set of the same source.
A further test has as its system HT-1080. The test can be described thus: HT1080 cell viability loss – fluorescence readout (AID 620). The test is classed as functional, cell-based. To be noted: Homo sapiens.
Test [29] can be described thus: Luminescence Cell-Based Dose Retest to Confirm Inhibitors of Cancer Stem Cells. [Related pubchem assays (depositor defined):AID2717, AID2721]. It is filed as functional. To be noted: Homo sapiens.
The target in test [30] is COUP transcription factor 2 (Homo sapiens, UniProt P24468). The test can be described thus: Luminescence-based cell-based high throughput dose response assay to identify inhibitors of COUP-TFII (NR2F2). The test is classed as functional.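 Also: HEK293 cells transiently cotransfected with COUP-TFII expression vector and reporter; luciferase reporter luminescence driven by COUP-TFII from the pX2-168 reporter plasmid.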
Test [31] in a line: reduced cellular PGC1a acetyl-lysine signal – cell-based, cherry-picked samples, dose response (AID 720514).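 Also: potency may reflect raised or lowered acetylation signal.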 The test is classed as functional.
Test [32] can be described thus: potency of ADAM10 substrate cleavage blockers – biochemical, QFRET, dose response (AID 743254).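 Also: ADAM10 enzyme with the DM2 quenched FRET peptide as substrate; EDANS fluorescence gain as the protease cuts the substrate; inhibitor potency against ADAM10 proteolytic activity.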
In test [33] the target is Disintegrin and metalloproteinase domain-containing protein 17 (Homo sapiens, UniProt P78536). In words: inhibition of ADAM17 substrate cleavage – biochemical, quenched FRET substrate, counter-screen for ADAM10 exosite inhibitor project, dose response (AID 743253).

The structures appear in SMILES notation. Active and inactive are the calls of the source.

In the case of `CCCS(=O)(=O)c1cnc(C2COc3ccccc3O2)nc1N` (stereo unspecified), the EC50 in test [1] was 0.197 µM (active); in test [2] it was 0.862 µM (active); in “cells [3]”, > 12 µM (inconclusive); in test [4], 0.132 µM (active); in test [5] it was < 0.16 µM (active); in test [6] it was < 0.1 µM (active). Moreover, the 50% effective concentration (EC50) in test [7] was 14.4 µM (active); in [8] it was 3.05 µM (active); in test [10], 1.06 µM (active). The half-maximal inhibitory concentration (IC50) in [9] is reported as > 39.8 µM (not active). In addition, the half-maximal activity concentration (AC50) in [11] was 34.2 µM (active); in test [12], 40.1 µM (active); in [13], 1.45 µM (active); in test [14] it was 1.2 µM (active); in test [15], 26.6 µM (active).

For `Brc1ccc2nc(-c3ccco3)c(Cc3ccccc3)n2c1`, the half-maximal inhibitory concentration (IC50) on Major prion protein was 6.67 µM (active); in “cells [16]”, 113 µM (inactive).

As for `O=C(C1CCCC1)N1CC[C@@H]2[C@H](CO)Nc3ccc(C4=CCCCC4)cc3[C@@H]21`, the AC50 at Paired box protein Pax-8 is 12.7 µM (active); in test [17], 25.5 µM (active); in [18], 33.1 µM (active); in test [19], 5.7 µM (active); in test [20] it was > 39 µM (inactive).

With `COc1ccc2c3c([nH]c2c1)[C@H](CO)N(C(C)=O)CC31CN(Cc2ccccc2Cl)C1`, the concentration at half-maximal activity (AC50) in test [21] is 3 µM (active).

On to `CC(=O)Nc1ccc(SCC(=O)c2cc(C)n(Cc3cccs3)c2C)cc1`, for which the EC50 in the test with HEK293 [22] was > 20 µM (inactive); in test [23], 3.59 µM (active); in test [26], > 20 µM (inactive); in the test on HT-1080 it was > 50 µM (not active). Further, the IC50 in the test on HEK293 [24] was > 20 µM (inactive); in the test on HEK293 [25], > 20 µM (inactive); in the test on HEK293 [27], > 20 µM (inactive); in the test on HEK293 [28], > 20 µM (inactive); in [30], 23.6 µM (inactive). In addition, the half-maximal activity concentration (AC50) in [29] was 1.77 µM (active).

Turning to `CC(=O)c1ccc(Nc2cc(C)nc3ccc(C)cc23)cc1`, in test [31], the AC50 was 6.09 µM (active).

Take `Oc1ccc(C[C@H]2CNC(=S)N2CC2CCCN2C[C@H](Cc2ccccc2)N2C[C@H](Cc3ccc(O)cc3)N(CC3CCCCC3)C2=S)cc1` (stereo partly specified): the IC50 in test [32] is 7.86 µM (active); in test [33] it was > 69.5 µM (inactive).

In general, EC50 refers to the midpoint of the concentration-response curve. As usually defined, the IC50 is the concentration that inhibits the measured activity by half. A word on the AC50: it is the midpoint of the concentration-response curve, whichever way the signal moves.
